From PubChem BioAssay AID2060892 (Molecular Pharmacology Branch, DTP, NCI, 2025)
pIC50: −log10 of the molar value.

Test system: HOP-62 complex spheroids with HUVEC/MSC, viability
Experiment: Anticancer human tumor HOP-62 cell line growth inhibition [RAS];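 note: spheroids exposed to agents for seven days before readout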;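 for viability, T/C: 100% = DMSO vehicle control viability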
Conditions: for pIC50: curve of first compound; for viability, T/C: stronger effect = lower value
Description: RAS pathway inhibitors in Combinations in Complex Spheroids
A high-throughput screen of multi-cell type tumor spheroids was designed to identify active combinations of RAS pathway inhibitors and targeted small molecules. Complex spheroids include a stromal component modeled by human endothelial cells (HUVEC) and fibroblasts modeled by human mesenchymal stem cells (MSCs). The concentration ranges selected for each drug and investigational agent were based upon clinically achievable concentrations if the clinical Cmax of the agent was known.
Compounds. The drugs and investigational agents: abemaciclib (NSC768073), cobimetinib (NSC768068), divarasib (GDC6063, NSC841802), docetaxel (NSC628503), GDC-1971 (RLY-1971, NSC841576), gemcitabine (NSC613327), inavolisib (NSC800729), ipatasertib (NSC767898), KB-0742 (NSC834161), MRTX-1133 (NSC836407), osimertinib (NSC779217), RMC-4630 (NSC839698), RMC-6236 (NSC851965), RMC-6291 (NSC852671), Ro-3306 (NSC812927), sapanisertib (NSC764658), SN-38 (NSC673596), staurosporine (NSC755774), SY5609 (NSC837396), and tovorafenib (DAY101, NSC766906), were obtained from the National Cancer Institute (NCI) Developmental Therapeutics Program Chemical Repository. The FDA-approved anticancer drug set is available from the NCI Developmental Therapeutics Program. […] The stock solutions were prepared in dimethyl sulfoxide (DMSO, Sigma-Aldrich, St. Louis, MO, cat. D2650) at 800-fold the tested concentration and stored at -70 degrees C prior to their use. All drugs and investigational agents were tested over a range starting from a high concentration at or near the clinical Cmax and decreasing in half-log increments. If the clinical Cmax for an agent had not been determined, the highest concentration tested was 10 microM.
Cell Culture. All cells were maintained in an incubator at 37 degrees C and 5% CO2 with 95% humidity. The PDC lines were cultured according to standard operating procedures established by the NCI PDMR. All PDCs were thawed and cultured in Matrigel-coated flasks prepared with a working solution of 1X Ham's F-12 nutrient mix, without supplementation (Invitrogen, Waltham, MA, cat. 11765054), 100 U/mL penicillin-streptomycin (Invitrogen, cat. 15140122), and 2.5% Matrigel (Corning Inc., Corning, NY, cat. 354248) for the first three passages. The 362531-283-R-J2-PDC and 782815-120-R-J1-PDC lines were cultured in 6C/Colon 1B media, which includes advanced DMEM/F-12 (Thermo Fisher Scientific, cat. 12634028), 10 mM HEPES (Thermo Fisher Scientific, cat. 15630080), 1X GlutaMAX supplement (Thermo Fisher Scientific, cat. 35050061), 0.1 mg/mL primocin (InvivoGen, San Diego, CA, cat. ant-pm-2), 10% defined fetal bovine serum, heat inactivated (HyClone Laboratories Inc., Logan, UT, cat. SH30070.03HI), 50% L-WRN conditioned media (ATCC, cat. CRL-3276), 1.25 mM N-Acetyl-L-cysteine (Sigma-Aldrich, cat. A9165), 10 mM nicotinamide (Sigma-Aldrich, cat. N0636), 1X B-27 supplement (Thermo Fisher Scientific, cat. 17504044), 1X N-2 supplement (Thermo Fisher Scientific, cat. 17502048), 50 ng/mL human EGF (Thermo Fisher Scientific, cat. PHG0311), and 10 microM Y-27632 dihydrochloride (Tocris Bioscience, cat. 1254). The K12877-001-R-J1-PDC line was cultured in 6I media, which includes all 6C/Colon 1B media plus 10 ng/mL human FGF-10 (PeproTech, cat. 100-26), 1 ng/mL human FGF-2 (PeproTech, cat. 100-18B), 1 µM prostaglandin E2 (Tocris Bioscience, cat. 2296), […] hydrocortisone (Sigma-Aldrich, cat. H4001), and […] bovine insulin (Sigma-Aldrich, cat. I6634). The K86415-001-R-J1-PDC line was cultured in 6D media, which includes all 6C/Colon 1B media components minus the L-WRN conditioned media. The 485176-168-R4-J1-PDC was cultured in PANC media, which includes all 6C/Colon 1B media plus 100 ng/mL human FGF-10 (PeproTech, cat. 100-26), 500 nM SB-431542 (Selleckchem, cat. S1067), and 10 nM gastrin (Tocris Bioscience, cat. 3006). […]

With `Nc1ccn(C2OC(CO)C(O)C2(F)F)c(=O)n1` (configuration not stated) + C#Cc1c(F)ccc2cc(O)cc(-c3ncc4c(N5CC6CCC(C5)N6)nc(OCC56CCCN5CC(F)C6)nc4c3F)c12 the pIC50 (second compound 0.0316 µM) was 8.20, the pIC50 (second compound 0.1 µM) was 8.24 and the pIC50 (second compound 0.316 µM) was 8.23. For the same compound, the pIC50 (second compound 1 µM) was 8.27, the pIC50 (second compound 3.16 µM) was 8.34 and the pIC50 (second compound 10 µM) was greater than 8.50. The viability, T/C (second compound 0.0316 µM, first compound 0.00316 µM) was 107%, the viability, T/C (second compound 0.0316 µM, first compound 0.01 µM) was 13.4% and the viability, T/C (second compound 0.0316 µM, first compound 0.0316 µM) was 5.94%. For the same compound, the viability, T/C (second compound 0.0316 µM, first compound 0.1 µM) was 5.61%, the viability, T/C (second compound 0.0316 µM, first compound 0.316 µM) was 4.99% and the viability, T/C (second compound 0.0316 µM, first compound 1 µM) was 6.52%. For the same compound, the viability, T/C (second compound 0.1 µM, first compound 0.00316 µM) was 92.4%, the viability, T/C (second compound 0.1 µM, first compound 0.01 µM) was 11.2% and the viability, T/C (second compound 0.1 µM, first compound 0.0316 µM) was 8.15%. For the same compound, the viability, T/C (second compound 0.1 µM, first compound 0.1 µM) was 4.9%, the viability, T/C (second compound 0.1 µM, first compound 0.316 µM) was 5.5% and the viability, T/C (second compound 0.1 µM, first compound 1 µM) was 6.42%. It also gave a viability, T/C (second compound 0.316 µM, first compound 0.00316 µM) of 97.4%, a viability, T/C (second compound 0.316 µM, first compound 0.01 µM) of 10.9% and a viability, T/C (second compound 0.316 µM, first compound 0.0316 µM) of 4.88%. It also gave a viability, T/C (second compound 0.316 µM, first compound 0.1 µM) of 4.68%, a viability, T/C (second compound 0.316 µM, first compound 0.316 µM) of 4.42% and a viability, T/C (second compound 0.316 µM, first compound 1 µM) of 4.04%. It also gave a viability, T/C (second compound 1 µM, first compound 0.00316 µM) of 83.7%, a viability, T/C (second compound 1 µM, first compound 0.01 µM) of 9.09% and a viability, T/C (second compound 1 µM, first compound 0.0316 µM) of 4.77%. It also gave a viability, T/C (second compound 1 µM, first compound 0.1 µM) of 4.48%, a viability, T/C (second compound 1 µM, first compound 0.316 µM) of 3.43% and a viability, T/C (second compound 1 µM, first compound 1 µM) of 3.47%. It also gave a viability, T/C (second compound 3.16 µM, first compound 0.00316 µM) of 67.8%, a viability, T/C (second compound 3.16 µM, first compound 0.01 µM) of 12.5% and a viability, T/C (second compound 3.16 µM, first compound 0.0316 µM) of 5.06%. It also gave a viability, T/C (second compound 3.16 µM, first compound 0.1 µM) of 4.31%, a viability, T/C (second compound 3.16 µM, first compound 0.316 µM) of 5.01% and a viability, T/C (second compound 3.16 µM, first compound 1 µM) of 4.23%. It also gave a viability, T/C (second compound 10 µM, first compound 0.00316 µM) of 39.5%, a viability, T/C (second compound 10 µM, first compound 0.01 µM) of 12.1% and a viability, T/C (second compound 10 µM, first compound 0.0316 µM) of 8.09%. It also gave a viability, T/C (second compound 10 µM, first compound 0.1 µM) of 6.92%, a viability, T/C (second compound 10 µM, first compound 0.316 µM) of 8.08% and a viability, T/C (second compound 10 µM, first compound 1 µM) of 6.83%.
